LC50 and Activity data for one compound are collected here from ChEMBL document CHEMBL1154926, “Cyanolide A, a glycosidic macrolide with potent Molluscicidal activity from the Papua New Guinea cyanobacterium Lyngbya bouillonii” (J Nat Prod, 2010).

The subject of one data set is Biomphalaria glabrata. Put plainly: Molluscicidal activity against Biomphalaria glabrata after 24 hrs. The data set is classed as functional.
Data set [1] can be described thus: Toxicity in brine shrimp. The data set is classed as organism-based. To be noted: artemia, in vivo.
In another data set the test system is NCI-H460. Put plainly: Cytotoxicity against human H460 cells at 35 uM. The data set is classed as functional, cell-based.
Another data set relates to N2a. The data set is described as follows: Cytotoxicity against mouse Neuro2a cells at 35 uM. The data set is classed as functional, cell-based.

Regarding `CC[C@@H]1C[C@@H]2C[C@H](O[C@@H]3OC[C@@H](OC)[C@H](OC)[C@H]3OC)C(C)(C)[C@H](CC(=O)O[C@H](CC)C[C@@H]3C[C@H](O[C@@H]4OC[C@@H](OC)[C@H](OC)[C@H]4OC)C(C)(C)[C@H](CC(=O)O1)O3)O2` [CYANOLIDE A], the LC50 came to 1.2 µM in the data set with Biomphalaria glabrata and 10.8 µM in data set [1]. The Activity result with NCI-H460 and in the data set on N2a was “Not toxic” throughout.
